Tests used:
[1] = system: nitrotyrosine; experiment: Nitrotyrosine immunostaining of spinal cord (oxidative stress); assay type: in vivo, rat; details: 7 days post injury
Method: (§1) Injectable methylprednisolone (MP) solution (62.5 mg/ml) was obtained from Pfizer. MP was conjugated to the chain terminus of methoxy HPMA, an amphiphilic macromolecular prodrug. In parallel, IRDye® 800CW-MP-HPMA (MP-Nano-IRDye) and Alexa Fluor 488-labeled HPMA-MP (MP-Nano-Alexa 488) were also synthesized for optical imaging to visualize the bio-distribution of MP-Nano. Immediately after spinal cord transection, animals were administered an intravenous injection of freshly prepared MP-Nano (60 mg/kg, equivalent to 20% free MP dose at 30 mg/kg), MP (30 mg/kg) or vehicle (propylene glycol) by tail vein, followed by implantation of an Alzet pump (Durect Co, Cupertino, Calif., USA) which provided a 24-h infusion of MP at 5.4 mg/kg/hr (SCI-MP), or vehicle (propylene glycol) (SCI-veh and SCI-Nano-MP) into a subcutaneous pocket. These dosing of MP corresponds on an mg per kg basis to that prescribed by the Bracken protocol. Sham-transected animals underwent laminectomy and implantation of the same Alzet pumps, with vehicle (propylene glycol) infusion instead, as baseline controls.
(§2) At 2 and 7 days after injury, animals (sham, SCI-veh, SCI-MP, SCI-Nano-MP, n=5 animals for each condition and time point) were perfused transcardially with 4% paraformaldehyde. […] Fluorescence intensity quantifications were performed in the ImageJ software (NIH).

[2] = system: TNF-α; experiment: TNF-α immunostaining of spinal cord (inflammation); assay type: in vivo, rat; details: 7 days post injury
Method: as §1, §2

[3] = Body weight and food intake after acute SCI; assay type: in vivo, rat
Method: All animals were maintained on a 12:12-h light/dark cycle with lights on at 07:00 h in a temperature-controlled (20±2° C.) vivarium. Spinal cord transection surgery was performed as previously described. In brief, 9-week-old Wistar rats (Charles River) were anesthetized by inhalation of isofluorane (3-5%) and hair was removed with a clipper. Skin over the back was cleaned with betadine and isopropyl alcohol. After making a midline incision the spinal cord at the site of transection (T4) was visualized by laminectomy, and the spinal cord was transected with microscissors. The space between transected ends of the spinal cord was filled with surgical sponge and the wound was closed in two layers with suture. Urine was manually expressed 3 times daily until automaticity develops, then as needed. Baytril was administered for the first 3 to 5 days postoperatively then as needed for sign of cloudy or bloody urine or wound infection. Sham-transected animals received a laminectomy-only surgery.
Injectable methylprednisolone (MP) solution (62.5 mg/ml) was obtained from Pfizer. MP was conjugated to the chain terminus of methoxy HPMA, an amphiphilic macromolecular prodrug to produce a polymeric methylprednisolone conjugate. […]

[4] = Fasting blood glucose level; assay type: in vivo, rat; details: 2 days post injury
From the text: Rats were fasted overnight in clean cages with free access to water in new clean bottles. The next morning prior to sacrifice, fasted blood glucose measurement was taken by applying tail blood to a Contour Blood Glucose Monitoring System (Bayer).

[5] = system: GLUT4; experiment: GLUT4 gene expression in gastrocnemius muscle (qPCR); assay type: in vivo, rat; details: SCI animals
Method: (§3) Total RNAs from gastrocnemius, soleus and bone were extracted using the TRI reagent (Sigma-Aldrich). For western blot analysis, gastronemius and soleus muscle tissue were lysed in RIPA buffer. Protein concentrations were determined using the BCA method. 30 μg protein lysate was used for the SDS-PAGE protein separation, and blots were probed with FOXO1 antibody.
(§4) Real time PCR was used for the determination of mRNA levels as described previously. One μg of total RNA was used to synthesize the first strand cDNA by the High Capacity cDNA Reverse Transcription Kit (Applied Biosystems). qPCR was performed with an Applied Biosystems (ABI) Via 7 thermal cycler using ABI Taqman 2×PCR mix and ABI Assay on Demand qPCR primers. Changes in expression were calculated using the 2-ΔΔCt method using 18S RNA as the internal control.

[6] = system: G6PC; experiment: G6PC gene expression in gastrocnemius muscle (qPCR); assay type: in vivo, rat; details: SCI animals
Method: as §3, §4

[7] = Skeletal muscle mass after acute SCI; assay type: in vivo, rat
Method: At the end of animal study, animals were euthanized by inhalation of isofluorane prior to harvesting of tissue for study. Gastrocnemius, soleus, plantaris, EDL, bicep and tricep muscle on both sides were dissected, weighed and stored at −80° C. for further analysis. The leg was removed using sterile technique; careful dissection was performed to free the head of the femur from the pelvis. To preserve bone for micro-CT study, the left leg was removed and placed into tubes containing 4% PFA overnight, after which the PFA will be replaced with 70% ethanol for storage. The right femur and tibia (n=4-5 per group) were placed in ice-cold Minimum Essential Alpha Medium (α-MEM), and then immediately processed for extraction of total RNA from bone.

[8] = system: gastrocnemius muscle; experiment: Muscle histology (H&E) of gastrocnemius, fiber cross-sectional area; assay type: in vivo, rat
Method: Pieces of gastrocnemius muscle were frozen in isopentane pre-cooled on dry ice and stored at −80° C. Transverse sections (10 μm) were then cut on Leika CM3050S cryostat and mounted directly onto cooled glass slides followed by hematoxylin & eosin (H&E) staining. Stained sections were viewed in the EVOS FL Auto system (Life Technologies). Fiber size measurement and distribution was performed using the ImageJ software (NIH).

[9] = system: TNF-α; experiment: TNF-α mRNA in gastrocnemius and soleus muscle; assay type: in vivo, rat; details: 2 days post injury
Method: as §3, §4

[10] = system: MAFbx/atrogin-1 and MuRF1; experiment: MAFbx and MuRF1 mRNA in muscle; assay type: in vivo, rat; details: 2 days post injury
Method: as §3, §4

[11] = system: FOXO1; experiment: FOXO1 protein level in muscle (western blot); assay type: in vivo, rat
Method: as §3

[12] = Areal bone mineral density by DXA; assay type: in vivo, rat
Method: (§5) Areal bone mineral density (BMD) measurements were performed by using a small animal dual-energy X-ray absorptiometer (DXA) (Lunar Piximus, Fitchburg, Wis., USA) as previously described. Volumetric BMD and bone architecture of the distal femur were assessed by a Scanco μCT scanner (μCT-40; Scanco Medical AG, Bassersdorf, Switzerland) at […] isotropic voxel size as previously described.

[13] = Bone architecture by high-resolution μCT; assay type: in vivo, rat
Method: as §5

[14] = system: TRAP, calcitonin receptor (CTR) and Integrin β3; experiment: Osteoclastic marker mRNA in bone (TRAP, CTR, Integrin β3); assay type: in vivo, rat; details: whole bone RNA
Method: (§6) Total bone RNA was extracted as previously described with some modifications. Briefly, long bones were dissected free of soft tissues, and bone marrow were flushed away with PBS using a 27 G ½ needle-syringe. The bone samples (˜1 g) were longitudinally cut into small piece and then digested 3 times with 2 mg/ml collagenase type I (Gibco, >150 Units; 20 ml), one time with 5 mM EDTA (Sigma-Aldrich, 10 ml)), and one more with the collagenase and EDTA, each for 25 min on a Shaker with rotation at 150 rpm at 370 C. Following the digestions, the bone samples were crushed using a mortar and pestle in liquid nitrogen. RNA was extracted from the lysate using the TRizol reagent (Sigma Aldrich) according to the manufacturer's instructions.
as §4

[15] = system: RANKL; experiment: RANKL mRNA and OPG/RANKL ratio in bone; assay type: in vivo, rat; details: whole bone RNA
Method: as §6, §4

[16] = system: SOST; experiment: SOST mRNA in bone; assay type: in vivo, rat; details: p<0.05
Method: as §6, §4

[17] = intravenous; cited from earlier work

For `C[C@H]1C[C@@H]2[C@H]([C@@H](O)C[C@@]3(C)[C@H]2CC[C@]3(O)C(=O)CO)[C@@]2(C)C=CC(=O)C=C12` [MP, methylprednisolone], the “change of SCI-induced accumulation of nitrotyrosine vs. SCI-veh” value [1] was −40.0%, the “change of SCI-induced TNF-α expression vs. SCI-veh” value [2] was −32.5% and the body weight loss ([3]; Day 1 and Day 2 post injury, vs control animals) was “significantly higher weight loss”. For the same compound, the food intake ([3]; vs all other experiment groups) was “Pronounced decrease of food intake”, the “fasting glucose level vs. sham” value [4] was “+10.4%” and the “change of GLUT4 expression” value [5] was −56.5%. For the same compound, the “G6PC expression vs. sham” value [6] was ~8 fold, the “muscle mass gastrocnemius vs. sham” value ([7]; NS) was −12.5% and the “muscle mass biceps vs. sham” value ([7]; p<0.01) was −14.6%. For the same compound, the “muscle mass EDL vs. sham” value ([7]; p<0.05) was −10.4%, the “change of fiber cross-sectional area” value [8] was −40% and the “cross-sectional area and fiber size distribution” value ([8]; in words) was “significant left shift of fiber size”. The “mRNA level of TNF-α in gastrocnemius and soleus muscle” value [9] was “significantly increased”, the “MAFbx and MuRF1 mRNA level in gastrocnemius muscle” value [10] was “more significant induction” and the “MAFbx mRNA level in soleus vs. SCI-veh group” value [10] was “more significant increases”. For the same compound, the “FOXO1 protein level in gastrocnemius and soleus muscle vs. SCI-veh” value [11] was “drastically elevated”, the “decrease in BMD at the distal femur vs. sham” value [12] was 11% and the “decrease of BMD at the proximal tibia vs. sham” value [12] was 11.2%. For the same compound, the “cortical architecture of the femur midshaft” value ([13]; cortical bone volume, number, thickness, separation) was “No significant change”, the “trabecular bone architecture of the distal femur” value ([13]; μCT structural parameters) was “more significant change in each of those structural parameters than SCI-veh group” and the “osteoclastic markers TRAP, CTR and Integrin β3 mRNA vs. sham” value [14] was “increase”. The “decrease in the OPG/RANKL ratio vs. sham” value [15] was “about three-fold”, the “mRNA level of RANKL vs. sham” value [15] was ~7 fold and the “levels of SOST mRNA vs. Sham” value [16] was −22%. The pharmacokinetic half-life [17] was 2.5 to 3 h.

— patent US20210100909A1, “Polymeric Methylprednisolone Conjugates and Uses Thereof” (United States Government As Represented By The Department …, priority 2019, published 2021)
